Source: publication PMC8933379, “Evaluation of the absolute oral bioavailability of the anaplastic lymphoma kinase/c-ROS oncogene 1 kinase inhibitor lorlatinib in healthy participants” (Cancer Chemotherapy and Pharmacology, 2021)
Like-named read-outs stand apart in the source and are kept apart here.

Legend:
[1] = design: method as in PMID 32441835; conditions: cited from earlier work; for Total drug-related radioactivity (parent plus metabolites) recovered in urine: depends on radioactivity placement on the molecule
[2] = dogs; animal studies, no reference given; cited from earlier work
[3] = cited from earlier work; for Mean half-life: previous drug interaction studies
[4] = used to estimate hepatic blood clearance; no reference given; cited from earlier work
human blood = conditions: planned IV dose formulation, human blood in vitro; earlier toxicology studies, no reference given; cited from earlier work
[5] = cited from earlier work; for Mean half-life: previous drug interaction studies; remark: listed apart in the source
[6] = design: method as in PMID 24819116; conditions: in vitro; cited from earlier work
[7] = Absolute oral bioavailability crossover study: plasma pharmacokinetics (LC-MS/MS, non-compartmental analysis); assay type: in vivo, human; conditions: for half-life: read-out: t½ (plasma terminal half-life) (converted); for Tmax: median (range)
Description: This was an open-label, phase 1, randomized two-sequence, two-treatment, two-period, crossover study in healthy participants. Approximately 12 participants were to be randomized in a 1:1 ratio to receive one of two treatment sequences: lorlatinib 50 mg IV dose (Treatment A) followed by a lorlatinib 100 mg single oral dose (Treatment B), or lorlatinib oral dose followed by lorlatinib IV dose. The IV dose is 100% bioavailable and was, therefore, considered to be the reference in this study. The reference lorlatinib 50 mg single IV dose was administered as 250 mL IV solution (0.20 mg/mL) over approximately 1.25 h at a constant rate in the morning of Day 1. Lorlatinib 100 mg single oral dose was administered as 4 × 25 mg immediate-release free base tablets in the morning of Day 1 with 240 mL ambient temperature water. Participants were instructed to swallow the lorlatinib tablets whole and to not manipulate or chew the tablets prior to swallowing. Both treatments were administered after an overnight fast of at least 10 h. To standardise the conditions on PK sampling days, during the first 4 h after dosing or start of the IV dose, participants were to refrain from eating and drinking beverages other than water or lying down (unless required for safety monitoring). Period 1 was defined as a 7-day period in which participants received Treatment A or B. Period 2 was defined as the 7-day period after Period 1, in which participants received the alternative treatment to before. Following treatment administration, participants were to undergo PK sampling for 144 h with a washout period of at least 10 days between successive lorlatinib doses. The study was conducted at a single Pfizer Clinical Research Unit (CRU) in New Haven, Connecticut, and participants were confined to the CRU from the time of admission (Day 0) until discharge (Day 7 of Period 2).
The detection range was 0.05–50 ng/mL or 1 to 1000 ng/mL for low and high concentration samples, respectively. […] Calibration standard responses were linear over the range of 2.50–2500 ng/mL; using a weighted (l/concentration^2) linear least squares regression. […] The lower limit of quantification (LLOQ) for lorlatinib and its metabolite was 2.50 ng/mL.
PK parameter values were calculated using an internally validated software system (eNCA). Actual sample collection times were used for the PK parameter analysis and samples below the LLOQ were set to 0. Maximum observed plasma concentration, Cmax, and time when Cmax was reached, Tmax, were determined from the observed values. The area under the curve (AUC) from time 0 to the time of the last quantifiable concentration (AUClast) was estimated using the linear/log trapezoidal method. AUCinf was calculated as AUClast + (Clast/kel), where Clast was the predicted plasma concentration at the last quantifiable time point estimated from the log-linear regression analysis and kel was the terminal phase rate constant calculated by a linear regression of the log-linear concentration–time curve. PK parameters based on terminal phase estimation were reported only where a well-characterized terminal phase was observed. A well-characterized terminal phase is defined as one with at least three data points, r^2 ≥ 0.9, and AUCextrap% ≤ 20. Metabolite-to-parent ratios were calculated after adjustment for molecular weights. Clearance (CL) for the IV dose and CL/F for the oral dose were calculated as dose/AUCinf. Volume of distribution during the terminal phase (area) was calculated as IV dose/(kel×AUCinf).
The hepatic extraction ratio was calculated for each participant as the hepatic blood clearance divided by hepatic blood flow.
Summary profiles (mean) of the lorlatinib plasma concentration–time data were plotted by treatment. Nominal PK sampling time was used for summary statistics and summary plots by sampling time.

[8] = 100 mg single oral dose of [14C]lorlatinib, healthy participants
[9] = 100 mg oral tablets vs 50 mg IV, healthy participants, n = 11
[10] = lorlatinib 100 mg oral tablets, n = 11, geometric mean (geometric %CV)

In the case of `C[C@H]1Oc2cc(cnc2N)-c2c(nn(C)c2C#N)CN(C)C(=O)c2ccc(F)cc21` [Lorlatinib, (10R)-7-amino-12-fluoro-2,10,16-trimethyl-15-oxo-10,15,16,17-tetrahydro-2H-8,4-(metheno)pyrazolo[4,3-h][2,5,11]-benzoxadiazacyclotetradecine-3-carbonitrile], the “Unchanged lorlatinib recovered in faeces” value [1, 8] is listed as ~ 9%, the “Unchanged lorlatinib recovered in urine” value [1, 8] is listed as under 1% and the “Total drug-related radioactivity (parent plus metabolites) recovered in urine” value ([1]; first of two values) is listed as 48%. For the same compound, the “Total drug-related radioactivity (parent plus metabolites) recovered in urine” value ([1]; second of two values) was 28%, the Absolute bioavailability [2] was about 97% and the AUCinf increase ([3]; co-administered with itraconazole) was 42%. The Mean half-life ([3]; lorlatinib alone, itraconazole study) was 23 h, the Mean half-life ([3]; with the inhibitor itraconazole) was 30 h and the Blood-to-plasma partitioning ratio [4] was 0.985. The “Potential to cause hemolysis” value (human blood) was “did not indicate any potential to cause hemolysis”, the AUCinf reduction ([5]; co-administered with rifampicin) was 85% and the Mean half-life ([5]; lorlatinib alone, rifampin study) was 29 h. For the same compound, the Mean half-life ([5]; with the inducer rifampin) was 18 h, the Permeability [6] was “highly permeable” and the “Absolute oral bioavailability: ratio (test/reference) of adjusted means, AUCinf (dn)” value [7, 9] was 80.78%. For the same compound, the “Ratio (test/reference) of adjusted means, AUClast (dn)” value [7, 9] was 81.65%, the “Absolute oral bioavailability: ratio (test/reference) of adjusted means, AUCinf (dn)” value ([7]; 100 mg oral tablets vs 50 mg IV, healthy participants, n = 11, listed as lorlatinib) was 81% and the “Inter-subject variability (%CV) for AUCinf, AUClast and Cmax” value ([7]; both oral administration and IV dosing) was 30–38%. It also gave an AUC(0-inf) ([7]; human, plasma, iv, 50 mg, Reference, lorlatinib 50 mg IV, mixed-effects model, read-out: AUCinf (dn), adjusted geometric mean) of 5190 ng·h/mL, an AUC(0-t) ([7]; human, plasma, iv, 50 mg, Reference, lorlatinib 50 mg IV, mixed-effects model, read-out: AUClast (dn), adjusted geometric mean) of 5030 ng·h/mL and an AUC(0-inf) ([7]; human, plasma, iv, 50 mg, lorlatinib 50 mg IV, dose normalized, n = 11, geometric mean (geometric %CV), read-out: AUCinf (dn)) of 5150 ng·h/mL. The AUC(0-t) ([7]; human, plasma, iv, 50 mg, lorlatinib 50 mg IV, dose normalized, n = 11, geometric mean (geometric %CV), read-out: AUClast (dn)) was 4990 ng·h/mL, the half-life ([7]; human, plasma, iv, 50 mg, lorlatinib 50 mg IV, n = 11, arithmetic mean ± SD) was 27 h and the AUC(0-inf) ([7]; human, plasma, iv, 50 mg, lorlatinib 50 mg IV, n = 11, geometric mean (geometric %CV), read-out: AUCinf) was 5150 ng·h/mL. The AUC(0-t) ([7]; human, plasma, iv, 50 mg, lorlatinib 50 mg IV, n = 11, geometric mean (geometric %CV), read-out: AUClast) was 4990 ng·h/mL, the AUC(0-inf) ([7]; human, plasma, oral, 100 mg, Test, lorlatinib 100 mg oral tablets, mixed-effects model, normalized to 50 mg IV dose, read-out: AUCinf (dn), adjusted geometric mean) was 4190 ng·h/mL and the half-life ([7]; human, plasma, po, 100 mg, lorlatinib 100 mg oral tablets, n = 11, arithmetic mean ± SD) was about 25.5 h. The AUC(0-inf) ([7]; human, plasma, po, 100 mg, lorlatinib 100 mg oral tablets, single dose, fasted, n = 11, geometric mean (geometric %CV), read-out: AUCinf) was 8290 ng·h/mL, the Cmax ([7]; human, plasma, lorlatinib 50 mg IV, dose normalized, n = 11, geometric mean (geometric %CV), read-out: Cmax (dn)) was 392 ng/mL and the clearance ([7]; human, plasma, lorlatinib 50 mg IV, n = 11, geometric mean (geometric %CV)) was 162 mL/min. For the same compound, the Vd ([7]; human, plasma, lorlatinib 50 mg IV, n = 11, geometric mean (geometric %CV), read-out: Vss) was 305 L, the Tmax ([7]; human, plasma, lorlatinib 50 mg IV, n = 11, read-out: Tmax) was 1.28 h and the Vd/F ([7]; human, plasma, lorlatinib 100 mg oral tablets, n = 11, geometric mean (geometric %CV), read-out: Vz/F) was 440 L. The Cmax ([7]; lorlatinib 50 mg IV, n = 11, geometric mean (geometric %CV)) was 392 ng/mL, the “t½ (plasma terminal half-life)” value ([7]; lorlatinib 100 mg oral tablets, n = 11, arithmetic mean ± SD) was 25.54 ± 3.75 h and the AUClast [7, 10] was 8109 (33) ng.h/mL. The CL/F [7, 10] was 12.05 (34) L/h, the Cmax [7, 10] was 501 ng/mL and the Tmax ([7]; lorlatinib 100 mg oral tablets, n = 11) was 1.50 (1.00–4.02) h. The “Eh (hepatic extraction ratio)” value ([7]; printed in the 100 mg oral column, plasma clearance × blood-to-plasma ratio 0.985 / hepatic blood flow 90 L/hr, geometric mean (geometric %CV)) was 0.118.
